Measured values: US20230172914A1, “BIOMARKER-BASED THERAPEUTIC COMPOSITION” (WELLMARKER BIO CO., LTD., priority 2019, published 2023)
Counter-ions that a name gives are not always drawn.

Experiments:
KM12C (RONΔ160) [1] = assay: MTS assay KM12C (Experimental Example 6); format: cell-based; conditions: Homo sapiens, 72 hours
Protocol: In MTS assay for Example 18 and Comparative Example 1, KM12C cell line was seeded at 1,000 cells per well into 96-well plates. After 24 hours, the cells were treated with various concentrations (0.000001 uM to 10 uM) of Example 18 and Comparative Example 1 in 100 ul of 10% FBS-MEM medium (Welgene) per well. Subsequently, the cells were incubated for 72 hours. Then, 20 μl of MTS solution (Promega) was added thereto, and incubation was performed for 2 hours. Then, the absorbance was measured at 490 nm. The IC50 values for Example 18 and Comparative Example 1 were calculated using GraphPad Prism™ 5 to investigate cytotoxicity.

KM12C (RONΔ160) [2] = assay: Cell death-inducing ability, trypan blue exclusion, KM12C; format: cell-based, human; conditions: 48 hours
Protocol: (§1) The cell death-inducing ability of Example 18 and Comparative Example 1 was measured in KM12C with RON mutant (Δ160), a cetuximab-resistant cell line, and Colo320HSR cell line, a cell line not expressing RON. The two colon cancer cell lines were seeded, respectively, onto 60-mm plates at 2×10^5 cells. Then, after 24 hours, while performing medium exchange, the cells were subjected to treatment with the sample compounds at respective concentrations (1 μM, 5 μM) for 48 hours. After 48 hours, the cells and cell suspensions were collected (1,500 rpm, 3 minutes), and live cells and dead cells were quantitated (n=2) through trypan blue (15250-061, Gibco) exclusion assay.

Colo320HSR (RON-) = assay: Cell death-inducing ability, trypan blue exclusion, Colo320HSR; format: cell-based; conditions: 48 hours
Protocol: as §1

KM12C cell line tumor = assay: Efficacy in animal model transplanted with KM12C, 30 and 50 mpk (Experimental Example 11); format: in vivo, BALB/c nude mice; conditions: once a day for 2 weeks
Protocol: 5-Week-old female BALB/c nude mice were purchased and acclimatized for 1 week. Then, human-derived colon cancer cell line KM12C (1.5×10^6 cells/mice) was diluted in PBS, and injected subcutaneously (100 μl) into the right dorsal side of the mice. Comparative Examples 1 and Example 18 were orally administered when the tumor reached a size of about 100 mm^3. The drug was administered at 30 mpk and 50 mpk once a day for 2 weeks, and tumor size and body weight were measured twice a week. […] After completion of the drug administration, the experimental animals were euthanized, and then the tumors were extracted and weighed to perform comparative analysis.

[3] = system: colon cancer patient tissue (active RON/RON mutant #1: Δ160); assay: Efficacy in animal model transplanted with colon cancer patient tissue, 30 mpk; format: in vivo; conditions: 30 mpk for 4 weeks
Protocol: Example 18 and Comparative Example 1 were administered to an animal model transplanted with the same patient tissue (active RON/RON mutant #1: Δ160) cells as in the animal model transplanted with colon cancer patient tissue tumor cells at 30 mpk for 4 weeks. […] The lower pictures of FIG. 21 show tumors extracted from representative individuals of the respective groups.

RON enzyme = RON enzyme (Homo sapiens, UniProt Q04912); assay: RON activity inhibition assay (ADP-Glo); format: biochemical; conditions: 50 uM ATP, G4Y1 peptide substrate
Protocol: Enzymatic reaction was allowed to proceed using 2 ng/uL of 250 uM G4Y1 peptide, which serves as a substrate for RON enzyme, and 50 uM ATP in assay buffer (40 mM Tris-HCl, pH 7.5, 20 mM MgCl2, 0.1 mg/mL bovine serum albumin, 50 uM DTT). The resultant was subjected to treatment with the compounds prepared in the examples and the comparative examples at various concentrations, and reaction was allowed to proceed at room temperature for 1 hour. Then, ADP-Glo™ Reagent and Kinase Detection Reagent were sequentially added thereto, and reaction was allowed to proceed at room temperature for 40 minutes and 30 minutes, respectively.
Subsequently, luminescence was measured using Wallaac Victor 2TM (PerkinElmer Life Sciences, 1420-042). Data were analyzed with the measured RLU values to verify activity of the RON inhibitors. The RLU value of a sample which was not treated with the compound was set as a 100% control, and the activity of the RON inhibitor was evaluated as a percentage of residual activity of the RON enzyme in the sample that was treated with the compound at the concentration to be tested.

[4] = system: MKN45 cell line (cell line expressing active RON); assay: Cell growth inhibition MTS assay on MKN45; format: cell-based; conditions: Homo sapiens, MKN-45, 48 hours, read-out: Growth inhibitory capacity on MKN45 cells, IC50
Protocol: MTS assay was performed to identify whether the compound according to the present invention has a cancer cell proliferation inhibitory effect through inhibition of extracellular signal-regulated kinase activity.
The following assay was performed on MKN45 cell line (cell line expressing active RON), a human gastric cancer cell line. The MKN45 cell line was dispensed at a concentration of 5,000 cells/well in a 96-well plate containing RPMI-1640 medium (Gibco, Invitrogen) containing 10% FBS, and then the plate was incubated for 24 hours at a condition of 5% CO2 and 37° C. Then, the respective wells were subjected to treatment with the compounds prepared in the examples, each of which was sequentially diluted from its high concentration of 10 μM. For a solvent control, the respective wells were subjected to treatment with dimethyl sulfoxide (DMSO) at the same concentrations (% (v/v)) to those used for the treatment with the compounds. Then, the respective cells were incubated for 48 hours.
In order to identify degree of viability of the cells, a mixture of MTS and phenazine methosulfate (PMS) provided in CellTiter 96 AQuous Non-Radioactive Cell Proliferation Assay Kit (Promega) was added to each cultured cell medium. Additional incubation was performed at a condition of 37° C. for 2 hours and 30 minutes. Then, absorbance was measured at 490 nm. […] In the following, A represents <10 nM, B represents 10 to 50 nM, and C represents >50 nM.

Sequence of RON enzyme (Q04912 25-1400): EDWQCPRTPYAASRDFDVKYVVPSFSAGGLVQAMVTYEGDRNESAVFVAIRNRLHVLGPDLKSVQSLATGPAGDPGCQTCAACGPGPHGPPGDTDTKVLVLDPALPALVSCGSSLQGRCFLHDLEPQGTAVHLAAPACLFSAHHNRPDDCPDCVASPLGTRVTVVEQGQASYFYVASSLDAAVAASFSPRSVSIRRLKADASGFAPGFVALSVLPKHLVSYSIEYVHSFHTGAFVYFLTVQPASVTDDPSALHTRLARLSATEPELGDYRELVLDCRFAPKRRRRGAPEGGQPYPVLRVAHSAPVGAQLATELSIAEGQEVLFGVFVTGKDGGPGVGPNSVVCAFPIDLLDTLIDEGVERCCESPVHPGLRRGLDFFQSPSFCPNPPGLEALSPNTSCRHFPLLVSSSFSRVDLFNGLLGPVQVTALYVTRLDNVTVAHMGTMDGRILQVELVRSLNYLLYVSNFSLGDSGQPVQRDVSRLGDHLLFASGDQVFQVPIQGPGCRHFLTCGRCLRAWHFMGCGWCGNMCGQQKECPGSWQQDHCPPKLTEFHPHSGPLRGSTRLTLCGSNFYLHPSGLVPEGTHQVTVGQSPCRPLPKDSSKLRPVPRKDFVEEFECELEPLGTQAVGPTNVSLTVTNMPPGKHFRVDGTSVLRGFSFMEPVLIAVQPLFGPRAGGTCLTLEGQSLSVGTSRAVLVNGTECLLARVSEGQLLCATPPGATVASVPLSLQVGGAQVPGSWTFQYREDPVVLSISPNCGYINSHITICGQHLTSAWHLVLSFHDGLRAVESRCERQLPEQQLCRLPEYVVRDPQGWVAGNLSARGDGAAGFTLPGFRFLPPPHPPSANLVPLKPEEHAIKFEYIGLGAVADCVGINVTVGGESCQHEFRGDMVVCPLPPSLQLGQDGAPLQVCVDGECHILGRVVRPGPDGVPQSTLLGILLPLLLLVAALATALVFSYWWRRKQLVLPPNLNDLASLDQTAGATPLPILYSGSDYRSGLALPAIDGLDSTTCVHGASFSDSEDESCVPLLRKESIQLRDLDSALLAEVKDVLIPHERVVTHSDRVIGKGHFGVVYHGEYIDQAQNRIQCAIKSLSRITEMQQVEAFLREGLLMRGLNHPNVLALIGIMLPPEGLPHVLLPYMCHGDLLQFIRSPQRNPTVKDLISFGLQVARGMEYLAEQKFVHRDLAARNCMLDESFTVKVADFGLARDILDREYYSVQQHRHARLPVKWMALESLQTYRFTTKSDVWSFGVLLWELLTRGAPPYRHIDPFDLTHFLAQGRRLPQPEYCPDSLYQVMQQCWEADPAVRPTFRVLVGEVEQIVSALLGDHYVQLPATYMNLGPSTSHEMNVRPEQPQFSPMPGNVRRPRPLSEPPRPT

## CCOc1ccn(-c2ccc(F)cc2)c(=O)c1C(=O)Nc1ccc(Oc2ccnc(N)c2Cl)c(F)c1 [Comparative Example 1, N-{4-[(2-amino-3-chloro-4-pyridinyl)oxy]-3-fluorophenyl}-4-ethoxy-1-(4-fluorophenyl)-2-oxo-1,2-dihydro-3-pyridinecarboxamide, reference compound]
KM12C (RONΔ160) [1]
  IC50: 358 nM
KM12C (RONΔ160) [2]; 1 μM
  Cell death, KM12C (RONΔ160): 11.7
KM12C (RONΔ160) [2]; 5 μM
  Cell death, KM12C (RONΔ160): 21.1
Colo320HSR (RON-); 1 μM
  Cell death, Colo320HSR (RON-): 5.9
Colo320HSR (RON-); 5 μM
  Cell death, Colo320HSR (RON-): 8.2
KM12C cell line tumor; 30 mg/kg oral
  TGI (%): 82.4%
KM12C cell line tumor; 50 mg/kg oral
  TGI (%): 83.7%
KM12C cell line tumor; 30 mpk and 50 mpk oral
  tumor growth inhibition efficacy: very high tumor growth inhibition efficacy
[3]
  tumor growth inhibition efficacy: about 18%

## CCOc1ccn(-c2ccc(F)cc2)c(=O)c1C(=O)Nc1ccc(Oc2ccnc3cc(-c4cn(C)cn4)sc23)c(F)c1 [Example 1, 4-ethoxy-N-(3-fluoro-4-(2-(1-methyl-1H-imidazol-4-yl)thieno[3,2-b]pyridine-7-yloxy)phenyl)-1-(4-fluorophenyl)-2-oxo-1,2-dihydropyridine-3-carboxamide]
RON enzyme
  IC50: 11.1 nM
[4]
  IC50: < 10 nM

## CCOc1ccn(C)c(=O)c1C(=O)Nc1ccc(Oc2ccnc3cc(-c4cn(C)cn4)sc23)c(F)c1 [Example 2, 4-ethoxy-N-(3-fluoro-4-(2-(1-methyl-1H-imidazol-4-yl)thieno[3,2-b]pyridine-7-yloxy)phenyl)-1-methyl-2-oxo-1,2-dihydropyridine-3-carboxamide]
[4]
  IC50: > 50 nM

## CCOc1ccn(-c2ccc(F)cc2)c(=O)c1C(=O)Nc1ccc(Oc2ccnc3cc(-c4nccn4C)sc23)c(F)c1 [Example 3, 4-ethoxy-N-(3-fluoro-4-(2-(1-methyl-1H-imidazol-2-yl)thieno[3,2-b]pyridine-7-yloxy)phenyl)-1-(4-fluorophenyl)-2-oxo-1,2-dihydropyridine-3-carboxamide]
[4]
  IC50: 10 to 50 nM

## CCOc1ccn(-c2ccc(F)cc2)c(=O)c1C(=O)Nc1ccc(Oc2ccnc3cc(-c4cnn(C)c4)sc23)c(F)c1 [Example 4, 4-ethoxy-N-(3-fluoro-4-(2-(1-methyl-1H-pyrazol-4-yl)thieno[3,2-b]pyridine-7-yloxy)phenyl)-1-(4-fluorophenyl)-2-oxo-1,2-dihydropyridine-3-carboxamide]
[4]
  IC50: 10 to 50 nM

## CCOc1ccn(-c2ccc(F)cc2)c(=O)c1C(=O)Nc1ccc(Oc2ccnc3cc(-c4ccccn4)sc23)c(F)c1 [Example 5, 4-ethoxy-N-(3-fluoro-4-(2-(pyridin-2-yl)thieno[3,2-b]pyridin-7-yloxy)phenyl)-1-(4-fluorophenyl)-2-oxo-1,2-dihydropyridine-3-carboxamide]
RON enzyme
  IC50: 8.8 nM
[4]
  IC50: 10 to 50 nM

## CCOc1ccn(-c2ccc(F)cc2)c(=O)c1C(=O)Nc1ccc(Oc2ccnc3cc(-c4cccnc4)sc23)c(F)c1 [Example 6, 4-ethoxy-N-(3-fluoro-4-(2-(pyridin-3-yl)thieno[3,2-b]pyridin-7-yloxy)phenyl)-1-(4-fluorophenyl)-2-oxo-1,2-dihydropyridine-3-carboxamide]
[4]
  IC50: 10 to 50 nM

## CCOc1ccn(-c2ccc(F)cc2)c(=O)c1C(=O)Nc1ccc(Oc2ccnc3cc(-c4nccs4)sc23)c(F)c1 [Example 7, 4-ethoxy-N-(3-fluoro-4-(2-(thiazol-2-yl)thieno[3,2-b]pyridin-7-yloxy)phenyl)-1-(4-fluorophenyl)-2-oxo-1,2-dihydropyridine-3-carboxamide]
[4]
  IC50: > 50 nM

## CCOc1ccn(Cc2ccc(F)cc2)c(=O)c1C(=O)Nc1ccc(Oc2ccnc3cc(-c4cn(CC)cn4)sc23)c(F)c1 [Example 8, 4-ethoxy-N-(4-(2-(1-ethyl-1H-imidazol-4-yl)thieno[3,2-b]pyridin-7-yloxy)-3-fluorophenyl)-1-(4-fluorobenzyl)-2-oxo-1,2-dihydropyridine-3-carboxamide]
[4]
  IC50: > 50 nM

## COCn1cnc(-c2cc3nccc(Oc4ccc(NC(=O)c5c(OC)ccn(-c6ccccc6)c5=O)cc4F)c3s2)c1 [Example 9, 4-methoxy-N-(3-fluoro-4-(2-(1-(methoxymethyl)-1H-imidazol-4-yl)thieno[3,2-b]pyridin-7-yloxy)phenyl)-1-phenyl-2-oxo-1,2-dihydropyridine-3-carboxamide]
[4]
  IC50: 10 to 50 nM

## CCOc1ccn(-c2ccc(F)cc2)c(=O)c1C(=O)Nc1ccc(Oc2ccnc3cc(CN4CCNCC4)sc23)c(F)c1 [Example 10, 4-ethoxy-N-(3-fluoro-4-(2-(piperazin-1-ylmethyl)thieno[3,2-b]pyridin-7-yloxy)phenyl)-1-(4-fluorophenyl)-2-oxo-1,2-dihydropyridine-3-carboxamide hydrochloride]
[4]
  IC50: > 50 nM

## CCOc1ccn(-c2ccc(F)cc2)c(=O)c1C(=O)Nc1ccc(Oc2ccnc3cc(CN4CCN(C)CC4)sc23)c(F)c1 [Example 11, 4-ethoxy-N-(3-fluoro-4-(2-((4-methylpiperazin-1-yl)methyl)thieno[3,2-b]pyridine-7-yloxy)phenyl)-1-(4-fluorophenyl)-2-oxo-1,2-dihydropyridine-3-carboxamide]
[4]
  IC50: > 50 nM
